The text below walks through data of patent US10213447B2, “Preparation of acetate salt compositions of pharmaceutical agents” (The Curators of the University of Missouri, priority 2015, dated 2019).

The conditions of data set [1]: cited from earlier work.
For data set [2] the following is noted: in vivo; cited from earlier work.
The conditions of data set [3]: cited from earlier work. This is another data set of the same source.
For data set [4] the following is noted: Meng, et al.; cited from earlier work.
For data set [5] the following is noted: cited from earlier work. The source holds these as a separate data set.
The nature of data set [6]: Particle size, zeta potential and polydispersity index by dynamic light scattering. The format is physicochemical. The procedure:
Fresh NPs were re-suspended by sonication (Qsonica LLC, Newtown, Conn., USA) in deionized water, or SA coated NPs were dissolved in deionized water and the particle size, the zeta potential, and polydispersity index (PDI) was measured through dynamic light scattering (Zetasizer Nano ZS, Malvern Instruments Ltd, Worcestershire, UK) at 25° C. Samples with polydispersity index (PDI)<0.05 were considered monodispersed according to the National Institute guidelines (7).

Data set [7] is described as follows: physchem. The conditions noted are these: pH 7, aqueous buffer, thermodynamic from solid.
Method: Sodium hydroxide was added raising the pH of the solution to 12.30. […] After the period of about 24 hours elapsed, the solution was freeze dried. The amount of DXT that dissolved into solution from each DXT composition was measured by determining the amount of DXT in the supernatant, as measured by UV spectroscopy at 230 nm after removing undissolved material by centrifugation. […] Native DXT (uncoated) dissolved into acetate buffer at the same pH was used as a control.

Structures are written as SMILES. Converted amounts (≈) assume the structure as drawn.

By log P is commonly meant a log measure of how a compound divides between an organic and an aqueous phase. Regarding `C[C@H](Cn1cnc2c(N)ncnc21)OCP(=O)(O)O` [TFV, tenofovir], the lipophilicity (log P) in data set [1] was −1.1. Moreover, the Oral bioavailability in data set [2] is 25-39%. In data set [3], the Solubility in water is reported as 13.4 mg/mL (≈ 46700 µM). Further, in data set [4], the “TFV encapsulated in chitosan NPs (EE %)” value was 5.83%.

For `O=P(O)(O)OP(=O)(O)OP(=O)(O)O` [Triphosphoric acid], the “pKa (fifth listed)” value in data set [5] (fifth dissociation, printed pKa) was 8.5. The pKa1 in data set [5] (first dissociation) is 1. Moreover, in data set [5] (fourth dissociation), the pKa4 was 3.7. In addition, the “pKa (second listed)” value in data set [5] (second dissociation, printed pKa) is recorded as 2.2. The pKa3 in data set [5] (third dissociation) was 2.3.

As to `CC(=O)[O-].[Na+]` [pure salt, sodium acetate], the ZP in data set [6] (as worded) is given as 0-3 mV. Besides, the “Zeta potential of pure salt (ev)” value in data set [6] (pure salt) is reported as −4.87 ± 0.64 ev.

For orientation: pKa means the negative logarithm of the acid dissociation constant. Broadly, the solubility is the dissolved amount per volume that the medium holds. Low values mean a poorly soluble substance, high ones a readily soluble substance. Turning to `CC(=O)O[C@@]12CO[C@@H]1C[C@H](O)[C@@]1(C)C(=O)[C@H](O)C3=C(C)[C@@H](OC(=O)[C@H](O)[C@@H](NC(=O)OC(C)(C)C)c4ccccc4)C[C@@](O)([C@@H](OC(=O)c4ccccc4)[C@H]21)C3(C)C` [uncoated DXT, Docetaxel, reference compound], the pKa in data set [5] was ~10.96. Further, in data set [7], the solubility is ~0.0118 mg/mL (≈ 14.6 µM).
